Results published in patent US4792607A, “5-fluoro-3,4-dihydro-2,4-dioxo-N-(3-indolyl)-1(2H)-pyrimidinecarboxamides” (Chisso Corporation, priority 1986, dated 1988).

Legend:
[1] = tested on: Leukosis cells of P-388 mouse; assay: Antitumor Effect Test (P-388 leukemia grafted into the abdomen of mice, ratio of survival days T/C); assay type: in vivo; conditions: dosed into the abdomen successively for 5 days, P-388 in CDF1 or BDF1 mouse
Description: [Antitumor Effect Test] Leukosis cells of P-388 mouse of 1×10^6 /mouse were grafted into the abdomen of CDF1 or BDF1 mouse, and the fixed quantity of the compound of this invention was successively dosed into the abdomen for 5 days. Each 6 mice per dose level as test groups and 30~33 mice as control groups were used. [formula]

[2] = Acute Toxicity Test (LD50); conditions: in vivo
[3] = Mus musculus, P388, ip, 120 h, 30 mg/kg

## O=C(NCCCCCCNC(=O)n1cc(F)c(=O)[nH]c1=O)Nc1cccnc1 [Experiment 18]
[1]; Mus musculus, P388, ip, 120 h, 0.47 mg/kg
  response vs control in vivo at 0.47 mg/kg: 110%
[1]; Mus musculus, P388, ip, 120 h, 0.94 mg/kg
  response vs control in vivo at 0.94 mg/kg: 115%
[1]; Mus musculus, P388, ip, 120 h, 1.87 mg/kg
  response vs control in vivo at 1.87 mg/kg: 124%
[1]; Mus musculus, P388, ip, 120 h, 3.75 mg/kg
  response vs control in vivo at 3.75 mg/kg: 131%
[1]; Mus musculus, P388, ip, 120 h
  response vs control in vivo at 7.5 mg/kg: 138%
  response vs control in vivo at 15 mg/kg: 139%
[2]
  LD50: > 30 mg/kg

## O=C(NCCC[n+]1ccccc1)n1cc(F)c(=O)[nH]c1=O [Experiment 17, 5-Fluoro-3,4-dihydro-2,4-dioxo-N-[3-(1-pyridinio)propyl]-1(2H-pyrimidinecarboxamide chloride]
[1]; [3]
  response vs control in vivo at 30 mg/kg: 130%
[1]; Mus musculus, P388, ip, 120 h
  response vs control in vivo at 60 mg/kg: 138%
[2]
  LD50: 240 mg/kg

## O=C(NCNC(=O)n1cc(F)c(=O)[nH]c1=O)c1ccccc1 [Experiment 13]
[1]; [3]
  response vs control in vivo at 30 mg/kg: 117%
[1]; Mus musculus, P388, ip, 120 h
  response vs control in vivo at 60 mg/kg: 132%
  response vs control in vivo at 120 mg/kg: 147%
[2]
  LD50: 240 mg/kg

## O=C(Nc1cccs1)n1cc(F)c(=O)[nH]c1=O [Experiment 1]
[1]; 30 mg/kg
  T/C (ratio of survival days): 129%
[1]; [3]
  response vs control in vivo at 30 mg/kg: 129%
[1]; Mus musculus, P388, ip, 120 h
  response vs control in vivo at 60 mg/kg: 138%
[2]
  LD50: > 240 mg/kg

## O=C(NCCCCC[n+]1ccccc1)n1cc(F)c(=O)[nH]c1=O [Experiment 16, 5-Fluoro-3,4-dihydro-2,4-dioxo-N-[5-(1-pyridinio)pentyl]-1(2H-pyrimidinecarboxamide bromide]
[1]; Mus musculus, P388, ip, 120 h
  response vs control in vivo at 7.5 mg/kg: 112%
  response vs control in vivo at 15 mg/kg: 120%
[1]; [3]
  response vs control in vivo at 30 mg/kg: 120%
[2]
  LD50: 60 mg/kg

## O=C(NCc1c[nH]c2ccccc12)n1cc(F)c(=O)[nH]c1=O [Experiment 4]
[1]; [3]
  response vs control in vivo at 30 mg/kg: 117%
[1]; Mus musculus, P388, ip, 120 h
  response vs control in vivo at 60 mg/kg: 115%
  response vs control in vivo at 120 mg/kg: 118%
  response vs control in vivo at 400 mg/kg: 128%
[2]
  LD50: > 400 mg/kg

## CN(C)CCCNC(=O)NCCCCCCNC(=O)n1cc(F)c(=O)[nH]c1=O [Experiment 21]
[1]; Mus musculus, P388, ip, 120 h
  response vs control in vivo at 15 mg/kg: 120%
  response vs control in vivo at 60 mg/kg: 120%
[1]; [3]
  response vs control in vivo at 30 mg/kg: 142%
[2]
  LD50: 120 mg/kg

## NS(=O)(=O)c1ccc(NC(=O)NCCCCCCNC(=O)n2cc(F)c(=O)[nH]c2=O)cc1 [Experiment 20]
[1]; [3]
  response vs control in vivo at 30 mg/kg: 95%
[1]; Mus musculus, P388, ip, 120 h
  response vs control in vivo at 60 mg/kg: 110%
  response vs control in vivo at 120 mg/kg: 111%
  response vs control in vivo at 240 mg/kg: 112%
[2]
  LD50: > 240 mg/kg

## O=C(NCCCCCCNC(=O)n1cc(F)c(=O)[nH]c1=O)Nc1ccccn1 [Experiment 19]
[1]; Mus musculus, P388, ip, 120 h
  response vs control in vivo at 60 mg/kg: 154%
  response vs control in vivo at 120 mg/kg: 164%
[2]
  LD50: > 240 mg/kg

## O=C(NCCCCCCNC(=O)n1cc(F)c(=O)[nH]c1=O)NNC(=O)c1ccncc1 [Experiment 23]
[1]; [3]
  response vs control in vivo at 30 mg/kg: 109%
[1]; Mus musculus, P388, ip, 120 h
  response vs control in vivo at 60 mg/kg: 119%
  response vs control in vivo at 120 mg/kg: 124%
  response vs control in vivo at 240 mg/kg: 138%
[2]
  LD50: > 240 mg/kg

## O=C(Nc1c[nH]c2ccccc12)n1cc(F)c(=O)[nH]c1=O [Experiment 3]
[1]; [3]
  response vs control in vivo at 30 mg/kg: 123%
[1]; Mus musculus, P388, ip, 120 h
  response vs control in vivo at 60 mg/kg: 135%
  response vs control in vivo at 120 mg/kg: 136%
  response vs control in vivo at 400 mg/kg: 153%
[2]
  LD50: > 400 mg/kg

## O=C(Nc1ccc[n+]([O-])c1)n1cc(F)c(=O)[nH]c1=O [Experiment 2]
[1]; Mus musculus, P388, ip, 120 h
  response vs control in vivo at 15 mg/kg: 127%
  response vs control in vivo at 60 mg/kg: 166%
[1]; [3]
  response vs control in vivo at 30 mg/kg: 149%
[2]
  LD50: 240 mg/kg

## O=C(NCCCCCCNC(=O)n1cc(F)c(=O)[nH]c1=O)NNC(=O)c1cccnc1 [Experiment 22]
[1]; [3]
  response vs control in vivo at 30 mg/kg: 113%
[1]; Mus musculus, P388, ip, 120 h
  response vs control in vivo at 60 mg/kg: 113%
  response vs control in vivo at 120 mg/kg: 128%
  response vs control in vivo at 400 mg/kg: 127%
[2]
  LD50: > 400 mg/kg

## O=C(NCC[n+]1ccccc1)n1cc(F)c(=O)[nH]c1=O [Experiment 14, 5-Fluoro-3,4-dihydro-2,4-dioxo-N-[2-(1-pyridino)ethyl]-1(2H-pyrimidinecarboxamide chloride]
[1]; Mus musculus, P388, ip, 120 h
  response vs control in vivo at 15 mg/kg: 169%
  response vs control in vivo at 60 mg/kg: 215%
[1]; [3]
  response vs control in vivo at 30 mg/kg: 171%
[2]
  LD50: 120 mg/kg
